Like-named read-outs stand apart in the source and are kept apart here.
What was measured:
[1] = tested on: quagga mussels; test: Mussel bioassay test (live mussel jar-test); assay type: in vivo, Dreissena bugensis; conditions: Dreissena rostriformis, 16 μg/ml
Protocol: Twenty freshly collected quagga mussels is placed in a jar containing 250 mL of de-chlorinated tap water at room temperature. Jars are kept at room temperature and connected into a manifold providing constant air supply through bubbling. Each test subject (HPLC fraction or peak) dissolved in DMSO is pipetted into jars separately at a concentration of 1-5 mg, and the mussels are incubated with the test subject for 24 hours. After the incubation period, water in each jar is discarded, and the mussels are rinsed with fresh water and transferred into open glass petri dishes for a 10-day observation period. Mussels are checked daily for mortality, and the dead mussels are removed and discarded. Each treatment is carried out in three replicates, and in the end of the 10-day incubation period, % mortality is calculated for each treatment.
The potency of compounds isolated from Pseudomonas cell culture is tested using procedures described above.

[2] = tested on: CL145A (ATCC 55799); test: Antibiotic resistance profile, discs on Mueller-Hinton Agar; assay type: cell-based, Pseudomonas protegens strain CL145A; conditions: for CL145A resistant or sensitive to the antibiotic: antibiotic disc, 72 hours incubation; for Suppresses growth of CL145A: 25° C., 72 hours
Protocol: One glycerol stock vial of CL145A was equally distributed onto Mueller-Hinton Agar plates (100 μl per plate) and spread on the plate using a sterile cell spreader. Antibiotic discs were then placed onto the plates along with a blank sterile disc. Plates were incubated at 25° C. in the dark for 72 hours.

[3] = tested on: quagga mussels; test: whole plant or invertebrate; conditions: Dreissena rostriformis
[4] = tested on: Brown garden snails (Cantareus aspersus); test: Snail experiments: chemical-containing corn starch; assay type: in vivo; conditions: 100 mg/gram corn starch; for Consumed amount of corn starch: after 24 hr
Protocol: An appropriate amount of a testing compound is dissolved in acetone (2 mL) first. The solution was added into 2.5 gram of corn starch and mixed well. The resulting mixture is transferred to a Petri dish (Φ 25 mm). The Petri dish is then put in the hood for natural dry. After drying, water (2 mL) is added into the Petri dish to make paste.
Brown garden snails (Cantareus aspersus) are collected from a house garden and raised at least 1 day in lab with cabbage or red carrot. Five individuals with a similar size are chosen for each treatment and transferred into a 1 L beaker. To make the snail active, some water is sprayed on them and in the beaker by using hand-sprayer. After spraying water, the Petri dish with chemical-containing corn starch is placed into the beaker the beaker is covered on the top with aluminum foil. Eating behavior, consumed amount of corn starch and mortality at 24 hr is recorded.

[5] = 24 hr, read-out: % mortality 24 hr
[6] = 48 hr, read-out: % mortality 48 hr
[7] = 72 hr, read-out: % mortality 72 hr
[8] = 96 hr, read-out: % mortality 96 hr
[9] = 24 h, read-out: Molluscicidal effect (mortality) 24 hr
[10] = 48 h, read-out: Molluscicidal effect (mortality) 48 hr
[11] = 72 h, read-out: Molluscicidal effect (mortality) 72 hr
[12] = 96 h, read-out: Molluscicidal effect (mortality) 96 hr
[13] = 24 h, read-out: Potency toward quagga mussels (mortality) 24 hr
[14] = 48 h, read-out: Potency toward quagga mussels (mortality) 48 hr
[15] = 72 h, read-out: Potency toward quagga mussels (mortality) 72 hr
[16] = 96 h, read-out: Potency toward quagga mussels (mortality) 96 hr

Compound	mortality at 11.1 µg/mL [3, 9] [%]	mortality at 11.1 µg/mL [3, 10] [%]	mortality at 11.1 µg/mL [3, 11] [%]	mortality at 11.1 µg/mL [3, 12] [%]	mortality at 11.1 µg/mL [3, 13] [%]	mortality at 11.1 µg/mL [3, 14] [%]	mortality at 11.1 µg/mL [3, 15] [%]	mortality at 11.1 µg/mL [3, 16] [%]	other results
CCCCC/C=C/C(O)CCCCCCCCCC(=O)O (stereo not drawn) [11-Hydroxy-12-ene-octadecanoic acid]	–	–	–	–	–	–	–	–	mortality at 16 µg/mL [1, 5]: 0%; mortality at 16 µg/mL [1, 6]: 20 ± 20%; mortality at 16 µg/mL [1, 7]: 33.3 ± 20.8%; mortality at 16 µg/mL [1, 8]: 40 ± 26.5%
CC1(C)S[C@@H]2[C@H](NC(=O)[C@H](N)c3ccccc3)C(=O)N2[C@H]1C(=O)O [Ampicillin]	–	–	–	–	–	–	–	–	CL145A resistant or sensitive to the antibiotic [2]: resistant; Suppresses growth of CL145A ([2]; disc 10 μg): No
CO/N=C(\C(=O)N[C@@H]1C(=O)N2C(C(=O)O)=C(COC(N)=O)CS[C@H]12)c1ccco1 [Cefuroxime]	–	–	–	–	–	–	–	–	CL145A resistant or sensitive to the antibiotic [2]: resistant; Suppresses growth of CL145A ([2]; disc 30 μg): No
O=C(N[C@H](CO)[C@H](O)c1ccc([N+](=O)[O-])cc1)C(Cl)Cl [Chloramphenicol]	–	–	–	–	–	–	–	–	CL145A resistant or sensitive to the antibiotic [2]: resistant; Suppresses growth of CL145A ([2]; disc 30 μg): No
CC[C@H]1OC(=O)[C@H](C)[C@@H](O[C@H]2C[C@@](C)(OC)[C@@H](O)[C@H](C)O2)[C@H](C)[C@@H](O[C@@H]2O[C@H](C)C[C@H](N(C)C)[C@H]2O)[C@](C)(O)C[C@@H](C)C(=O)[C@H](C)[C@@H](O)[C@]1(C)O [Erythromycin]	–	–	–	–	–	–	–	–	CL145A resistant or sensitive to the antibiotic [2]: resistant; Suppresses growth of CL145A ([2]; disc 15 μg): No
CCCCC/C=C/C(O)CCCCCCC1CCC(=O)O1 (stereo not drawn) [Piliferolide A]	–	–	–	–	–	–	–	–	mortality at 16 µg/mL [1, 5]: 53.3 ± 15.3%; mortality at 16 µg/mL [1, 6]: 53.3 ± 15.3%; mortality at 16 µg/mL [1, 7]: 70 ± 10%; mortality at 16 µg/mL [1, 8]: 80 ± 10%
CCN1CCN(C(=O)N[C@@H](C(=O)N[C@@H]2C(=O)N3[C@@H]2SC(C)(C)[C@@H]3C(=O)O)c2ccccc2)C(=O)C1=O [Piperacillin]	–	–	–	–	–	–	–	–	CL145A resistant or sensitive to the antibiotic [2]: sensitive; Suppresses growth of CL145A ([2]; disc 100 μg): Yes
CCCCCCCCC1CCC(=O)O1 (stereo not drawn) [SAR-001]	86.7 ± 5.8	96.7 ± 5.8	96.7 ± 5.8	96.7 ± 5.8	–	–	–	–	–
CCCCCCCC1CCOC1=O (stereo not drawn) [SAR-002]	30 ± 10	66.7 ± 15.3	73.3 ± 11.5	76.7 ± 15.3	–	–	–	–	–
CCCCCCCCC1CCCC(=O)O1 (stereo not drawn) [SAR-003]	3.3 ± 5.7	10 ± 10	10 ± 10	10 ± 10	–	–	–	–	–
CCCCCCCCCC1CCCC(=O)O1 (stereo not drawn) [SAR-004]	0	0	0	0	–	–	–	–	–
CCCCCCCCCCCC(=O)O [SAR-005]	0	0	0	0	–	–	–	–	–
CCCCCCCCC(O)CCC(=O)O (stereo not drawn) [SAR-006]	0	0	0	0	–	–	–	–	–
CCCCCCCCCC(=O)N1CCCC1 [SAR-007, N-(Decanoyl)pyrrolidine]	–	–	–	–	35 ± 7	50 ± 14	55 ± 21	65 ± 21	–
CCCCCC1CCC(=O)O1 (stereo not drawn) [SAR-008]	0	0	0	0	–	–	–	–	–
CCCC1CCC(=O)O1 (stereo not drawn) [SAR-011]	0	0	0	0	–	–	–	–	–
O=C1CCC(c2ccccc2)O1 (stereo not drawn) [SAR-013]	0	0	0	0	–	–	–	–	–
CCCCCCC1CCC(=O)O1 (stereo not drawn) [SAR-014]	0	0	0	0	–	–	–	–	Effect on brown garden snails [4]: strongly repel brown garden snails; 24 hr mortality ([4]; 24 hr): 0%; Consumed amount of corn starch [4]: 0% after
CCCCCCCCCC(=O)NC1CCCC1 [SAR-020, N-Cyclopentyldecanamide]	–	–	–	–	75 ± 7	75 ± 7	75 ± 7	75 ± 7	–
CCCCCCCCCC(=O)N1CCCCC1 [SAR-021, N-(Decanoyl)piperidine]	–	–	–	–	55 ± 21	55 ± 21	60 ± 14	65 ± 7	–
CCCCCCCCCC(=O)N1CCCCCC1 [SAR-022, N-(Decanoyl)hexamethyleneimine]	–	–	–	–	35 ± 7	40 ± 14	40 ± 14	45 ± 21	–
O=C(/C=C/c1ccccc1)NC1CCCC1 [SAR-023, N-Cyclopentylcinnamamide]	–	–	–	–	0	0	0	0	–
O=C(/C=C/c1ccccc1)N1CCCC1 [SAR-024, N-(trans-Cinnamoyl)pyrrolidine]	–	–	–	–	0	0	0	0	–
O=C(/C=C/c1ccccc1)N1CCCCC1 [SAR-025, N-(trans-Cinnamoyl)piperidine]	–	–	–	–	0	0	0	0	–
O=C(/C=C/c1ccccc1)N1CCCCCC1 [SAR-026, N-(trans-Cinnamoyl) hexamethyleneimine]	–	–	–	–	0	0	0	0	–
CCCCCCC/C=C/C(=O)NC1CCCC1 [SAR-027, N-Cyclopentyldecenamide]	–	–	–	–	85 ± 7	95 ± 7	95 ± 7	95 ± 7	–
CCCCCCCC=CC(=O)N1CCCC1 [SAR-030, N-(Decenoyl)pyrrolidine]	–	–	–	–	–	–	–	–	Effect on brown garden snails [4]: kill all brown garden snails after they ate; Consumed amount of corn starch [4]: Less than 5%
[H]/N=C(/N)N[C@H]1[C@H](O)[C@@H](O)[C@H](O[C@@H]2O[C@@H](C)[C@](O)(C=O)[C@H]2O[C@@H]2O[C@@H](CO)[C@H](O)[C@@H](O)[C@@H]2NC)[C@@H](N/C(N)=N\[H])[C@@H]1O [Streptomycin]	–	–	–	–	–	–	–	–	CL145A resistant or sensitive to the antibiotic [2]: resistant; Suppresses growth of CL145A ([2]; disc 10 μg): No
Gentamicin	–	–	–	–	–	–	–	–	CL145A resistant or sensitive to the antibiotic [2]: sensitive; Suppresses growth of CL145A ([2]; disc 10 μg): Yes
Penicillin	–	–	–	–	–	–	–	–	CL145A resistant or sensitive to the antibiotic [2]: resistant; Suppresses growth of CL145A ([2]; disc 10 μg): No
